Read-outs that look alike come from different tables or passages of the source.
Biological target: T1, VAV1 (Homo sapiens, UniProt P15498+Q96SW2)
T1 construct: A heterozygous VAV1 C-terminal HiBiT knock-in pool was generated at Monte Rosa Therapeutics from a clonal Jurkat cell; endogenous in cells; host or cells: Jurkat clone stably expressing LgBiT, homozygous GSPT1-G575N; heterozygous VAV1-HiBiT knock-in pool
Assay: VAV1 degradation activity, VAV1-HiBiT knock-in Jurkat luminescence assay (Example A, Table 1)
Format: cell-based
Details: VAV1-HiBiT knock-in Jurkat cells; for Dmax: Jurkat
Procedure, shortened: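 Jurkat cells carrying VAV1-HiBiT knock-in, plated in RPMI/10% FBS with Endurazine live-cell substrate and pre-incubated ~16 h at 37° C. Compound dosed from 10 μM stock; luminescence read 6 and 24 h later. Response normalised to plate negative/positive controls, EC50 from 3-parameter logistic fit (hillslope 1).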

[1] = luminescence read at 6 and 24 hours, read-out: VAV1 Dmax %
[2] = luminescence read at 6 and 24 hours, read-out: VAV1 Dmax %, class
[3] = luminescence read at 6 and 24 hours, read-out: VAV1 DC50
[4] = luminescence read at 6 and 24 hours, read-out: VAV1 DC50 (nM), class

Compound	Dmax [1] [%]	Dmax [2] [%]	DC50 [3] [nM]	DC50 [4] [nM]	Dmax (luminescence read at 6 and 24 hours after compound addition, read-out: VAV1 Dmax %) [%]	Dmax (luminescence read at 6 and 24 hours after compound addition, read-out: VAV1 Dmax %, class) [%]	DC50 (luminescence read at 6 and 24 hours after compound addition, read-out: VAV1 DC50) [nM]	DC50 (luminescence read at 6 and 24 hours after compound addition, read-out: VAV1 DC50 (nM), class) [nM]
Cn1cncc1COc1ccc(-c2cccc(C3CCC(=O)NC3=O)c2Cl)cc1 (stereo not shown) [Compound 186, 3-(2-chloro-4′-((1-methyl-1H-imidazol-5-yl)methoxy)-[1,1′-biphenyl]-3-yl)piperidine-2,6-dione]	95.3	> 90	13.6	≤ 100	–	–	–	–
O=C1CCC(c2cccc(-c3ccc(-n4cccc(C(F)(F)F)c4=O)cc3)c2Cl)C(=O)N1 (stereo not shown) [Compound 226, 3-(2-chloro-4′-(2-oxo-3-(trifluoromethyl)pyridin-1(2H)-yl)-[1,1′-biphenyl]-3-yl)piperidine-2,6-dione]	96.8	> 90	9.8	≤ 100	–	–	–	–
COc1cc(-c2cccc(C3CCC(=O)NC3=O)c2Cl)ccc1C (stereo not shown) [Compound 132]	84.5	60 to 90	475	100 to 1000	–	–	–	–
CN1CC(=O)N(Cc2ccc(-c3cccc(C4CCC(=O)NC4=O)c3Cl)cc2)c2cnccc21 (stereo not shown) [Compound 256]	75.8	60 to 90	213	100 to 1000	–	–	–	–
O=C1CCC(c2c(F)ccc(-c3ccc(Cn4ccccc4=O)cc3)c2Cl)C(=O)N1 (stereo not shown) [Compound 143, 3-(2-chloro-4-fluoro-4′-((2-oxopyridin-1(2H)-yl)methyl)-[1,1′-biphenyl]-3-yl)piperidine-2,6-dione]	55	< 60	6160	> 1000	–	–	–	–
O=C1CCC(c2cccc(-c3ccc(OCC4CCCO4)cc3)c2Cl)C(=O)N1 (stereo not shown) [Compound 119]	87.1	60 to 90	69.3	≤ 100	–	–	–	–
O=C1CCC(c2cccc(-c3ccc(C(=O)Nc4ccon4)cc3)c2Cl)C(=O)N1 (stereo not shown) [Compound 230, 2′-chloro-3′-(2,6-dioxopiperidin-3-yl)-N-(isoxazol-3-yl)-[1,1′-biphenyl]-4-carboxamide]	58.5	< 60	2090	> 1000	–	–	–	–
Nc1ccnn1Cc1ccc(-c2cccc(C3CCC(=O)NC3=O)c2Cl)cc1 (stereo not shown) [Compound 118]	89.7	60 to 90	39.7	≤ 100	–	–	–	–
O=C1CCC(c2cccc(-c3ccc(Cn4ccccc4=O)cc3)c2F)C(=O)N1 (stereo not shown) [Compound 149, 3-(2-fluoro-4′-((2-oxopyridin-1(2H)-yl)methyl)-[1,1′-biphenyl]-3-yl)piperidine-2,6-dione]	89.6	60 to 90	91.5	≤ 100	–	–	–	–
O=C1CCC(c2cccc(-c3ccc(CN4Cc5nccn5CC4=O)cc3)c2Cl)C(=O)N1 (stereo not shown) [Compound 276]	88.6	60 to 90	47.6	≤ 100	–	–	–	–
Cn1ccc(CCc2ccc(-c3cccc(C4CCC(=O)NC4=O)c3Cl)cc2)n1 (stereo not shown) [Compound 194, 3-(2-chloro-4′-(2-(1-methyl-1H-pyrazol-3-yl)ethyl)-[1,1′-biphenyl]-3-yl)piperidine-2,6-dione]	94.1	> 90	18.4	≤ 100	–	–	–	–
O=C1CC[C@H](c2cccc(-c3ccc(-n4ccccc4=O)cc3)c2Cl)C(=O)N1 [Compound 210, (R)-3-(2-chloro-4′-(2-oxopyridin-1(2H)-yl)-[1,1′-biphenyl]-3-yl)piperidine-2,6-dione]	96.9	> 90	40.9	≤ 100	–	–	–	–

Continued, values first:

Dmax [1] [%]	Dmax [2] [%]	DC50 [3] [nM]	DC50 [4] [nM]	Dmax (luminescence read at 6 and 24 hours after compound addition, read-out: VAV1 Dmax %) [%]	Dmax (luminescence read at 6 and 24 hours after compound addition, read-out: VAV1 Dmax %, class) [%]	DC50 (luminescence read at 6 and 24 hours after compound addition, read-out: VAV1 DC50) [nM]	DC50 (luminescence read at 6 and 24 hours after compound addition, read-out: VAV1 DC50 (nM), class) [nM]	Compound
98.3	> 90	2.21	≤ 100	–	–	–	–	O=C1CCC(c2cccc(-c3ccc(N4C(=O)NCCC45CCC5)cc3)c2Cl)C(=O)N1 (stereo not shown) [Compound 349, 3-(2-chloro-4′-(6-oxo-5,7-diazaspiro[3.5]nonan-5-yl)-[1,1′-biphenyl]-3-yl)piperidine-2,6-dione]
93.8	> 90	10.1	≤ 100	–	–	–	–	O=C1CCC(c2cccc(-c3ccc(CN4C(=O)CCC45CC5)cc3)c2Cl)C(=O)N1 (stereo not shown) [Compound 296]
93.2	> 90	13.6	≤ 100	–	–	–	–	CN1CC(=O)N(c2ccc(-c3cccc(C4CCC(=O)NC4=O)c3Cl)cc2)CC1(C)C (stereo not shown) [Compound 317]
–	–	–	–	61.2	60 to 90	929	100 to 1000	O=C1CCC(c2cccc(-c3cnc4c(c3)OCCN4)c2Cl)C(=O)N1 (stereo not shown) [Compound 494, 3-(2-chloro-3-(3,4-dihydro-2H-pyrido[3,2-b][1,4]oxazin-7-yl)phenyl)piperidine-2,6-dione]
95	> 90	13.3	≤ 100	–	–	–	–	O=C1CCC(c2cccc(-c3ccc(N4C(=O)OCCC45CCC5)nc3)c2Cl)C(=O)N1 (stereo not shown) [Compound 359, 3-(2-chloro-3-(6-(6-oxo-7-oxa-5-azaspiro-[3.5]nonan-5-yl)pyridin-3-yl)phenyl)piperidine-2,6-dione]
86.2	60 to 90	71.2	≤ 100	–	–	–	–	O=C1CCC(c2cccc(-c3ccc(CN4Cc5ccncc5C4=O)cc3)c2Cl)C(=O)N1 (stereo not shown) [Compound 301]
96.1	> 90	9.68	≤ 100	–	–	–	–	CC1CCC(=O)N(c2ccc(-c3cccc(C4CCC(=O)NC4=O)c3Cl)cc2)C1 (stereo not shown) [Compound 314]
98.8	> 90	2.25	≤ 100	–	–	–	–	Cn1ccc(C(F)(F)F)c(-c2ccc(-c3cccc(C4CCC(=O)NC4=O)c3Cl)cc2)c1=O (stereo not shown) [Compound 428, 3-(2-chloro-4′-(1-methyl-2-oxo-4-(trifluoromethyl)-1,2-dihydropyridin-3-yl)-[1,1′-biphenyl]-3-yl)piperidine-2,6-dione]
96.9	> 90	5.19	≤ 100	–	–	–	–	O=C1CCC(c2cccc(-c3ccc(N4CCCN(CC(F)F)C4=O)cc3)c2Cl)C(=O)N1 (stereo not shown) [Compound 429, 3-(2-chloro-4′-(3-(2,2-difluoroethyl)-2-oxotetrahydropyrimidin-1(2H)-yl)-[1,1′-biphenyl]-3-yl)piperidine-2,6-dione]
97.7	> 90	4.56	≤ 100	–	–	–	–	CN1CC2(CC2)N(c2ccc(-c3cccc(C4CCC(=O)NC4=O)c3Cl)cc2)C1=O (stereo not shown) [Compound 342, 3-(2-chloro-4′-(6-methyl-5-oxo-4,6-diazaspiro[2.4]heptan-4-yl)-[1,1′-biphenyl]-3-yl)piperidine-2,6-dione]
97.2	> 90	5.24	≤ 100	–	–	–	–	COC1CCCC(=O)N1c1ccc(-c2cccc(C3CCC(=O)NC3=O)c2Cl)cc1 (stereo not shown) [Compound 318]
96.1	> 90	7.99	≤ 100	–	–	–	–	O=C1CCC(c2cccc(-c3ccc(N4CCC5CC5C4=O)cc3)c2Cl)C(=O)N1 (stereo not shown) [Compound 312]
88.7	60 to 90	36.2	≤ 100	–	–	–	–	O=C1CCC(c2cccc(-c3ccc(N4C(=O)CCC45CCC5)nc3)c2Cl)C(=O)N1 (stereo not shown) [Compound 394, 3-(2-chloro-3-(6-(6-oxo-5-azaspiro[3.4]octan-5-yl)pyridin-3-yl)phenyl)piperidine-2,6-dione]
